{"source": "the supplement of paper PMC10307832", "assay_in_all_cases": "relative viability (nuclei count vs DMSO), 5 days (fraction); higher = more cells survive", "key": {"NCI-H727": {"system": "NCI-H727", "procedure,_shortened": "(§1)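 Five library-drug doses in √10 steps were combined with a fixed anchor-drug dose, or a single drug was given alone, by pin tool to lung cancer cell lines in 1536-well plates the day after seeding. Nuclei were stained and counted after 5 days. Relative viability is the nuclei count in treated wells over that in vehicle wells, taken as the median of duplicate plates.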"}, "NCI-H1651": {"system": "NCI-H1651", "procedure,_shortened": "as §1"}, "NCI-H647": {"system": "NCI-H647", "procedure,_shortened": "as §1"}, "NCI-H1437": {"system": "NCI-H1437", "procedure,_shortened": "as §1"}, "EKVX": {"system": "EKVX", "procedure,_shortened": "as §1"}, "HCC-15": {"system": "HCC-15", "procedure,_shortened": "as §1"}, "HCC-44": {"system": "HCC-44", "procedure,_shortened": "as §1"}, "COR-L23": {"system": "COR-L23", "procedure,_shortened": "as §1"}, "NCI-H2087": {"system": "NCI-H2087", "procedure,_shortened": "as §1"}, "EPLC-272H": {"system": "EPLC-272H", "procedure,_shortened": "as §1"}, "UMC-11": {"system": "UMC-11", "procedure,_shortened": "as §1"}, "ABC-1": {"system": "ABC-1", "procedure,_shortened": "as §1"}, "LCLC-103H": {"system": "LCLC-103H", "procedure,_shortened": "as §1"}, "NCI-H1792": {"system": "NCI-H1792", "procedure,_shortened": "as §1"}, "HCC-827": {"system": "HCC-827", "procedure,_shortened": "as §1"}, "NCI-H520": {"system": "NCI-H520", "procedure,_shortened": "as §1"}, "H3255": {"system": "H3255", "procedure,_shortened": "as §1"}, "201T": {"system": "201T", "procedure,_shortened": "as §1"}, "NCI-H661": {"system": "NCI-H661", "procedure,_shortened": "as §1"}, "NCI-H1975": {"system": "NCI-H1975", "procedure,_shortened": "as §1"}, "NCI-H1650": {"system": "NCI-H1650", "procedure,_shortened": "as §1"}, "NCI-H358": {"system": "NCI-H358", "procedure,_shortened": "as §1"}, "COR-L 105": {"system": "COR-L 105", "procedure,_shortened": "as §1"}}, "data": [{"molecule": "Cc1cnc(-c2cnc(NCCNc3ccc(C#N)cn3)nc2-c2ccc(Cl)cc2Cl)[nH]1", "note": "+ COc1cccc2cc(-c3nc([C@H]4CC[C@H](C(=O)O)CC4)n4ncnc(N)c34)[nH]c12 [OSI-027] (partner 0.5 µM)", "values": [{"measurement": "relative viability", "setting": "NCI-H727; first compound 0.08 µM", "result": 0.588}, {"measurement": "relative viability", "setting": "NCI-H727; first compound 0.253 µM", "result": 0.589}, {"measurement": "relative viability", "setting": "NCI-H727; first compound 0.8 µM", "result": 0.518}, {"measurement": "relative viability", "setting": "NCI-H727; first compound 2.53 µM", "result": 0.442}, {"measurement": "relative viability", "setting": "NCI-H1651; first compound 0.08 µM", "result": 0.797}, {"measurement": "relative viability", "setting": "NCI-H1651; first compound 0.253 µM", "result": 0.589}, {"measurement": "relative viability", "setting": "NCI-H1651; first compound 0.8 µM", "result": 0.71}, {"measurement": "relative viability", "setting": "NCI-H1651; first compound 2.53 µM", "result": 0.801}, {"measurement": "relative viability", "setting": "NCI-H647; first compound 0.08 µM", "result": 0.752}, {"measurement": "relative viability", "setting": "NCI-H647; first compound 0.253 µM", "result": 0.512}, {"measurement": "relative viability", "setting": "NCI-H647; first compound 0.8 µM", "result": 0.725}, {"measurement": "relative viability", "setting": "NCI-H647; first compound 2.53 µM", "result": 0.55}, {"measurement": "relative viability", "setting": "NCI-H1437; first compound 0.08 µM", "result": 0.896}, {"measurement": "relative viability", "setting": "NCI-H1437; first compound 0.253 µM", "result": 0.88}, {"measurement": "relative viability", "setting": "NCI-H1437; first compound 0.8 µM", "result": 0.916}, {"measurement": "relative viability", "setting": "NCI-H1437; first compound 2.53 µM", "result": 0.976}, {"measurement": "relative viability", "setting": "EKVX; first compound 0.08 µM", "result": 0.768}, {"measurement": "relative viability", "setting": "EKVX; first compound 0.253 µM", "result": 0.706}, {"measurement": "relative viability", "setting": "EKVX; first compound 0.8 µM", "result": 0.589}, {"measurement": "relative viability", "setting": "EKVX; first compound 2.53 µM", "result": 0.624}, {"measurement": "relative viability", "setting": "HCC-15; first compound 0.08 µM", "result": 0.707}, {"measurement": "relative viability", "setting": "HCC-15; first compound 0.253 µM", "result": 0.665}, {"measurement": "relative viability", "setting": "HCC-15; first compound 0.8 µM", "result": 0.512}, {"measurement": "relative viability", "setting": "HCC-15; first compound 2.53 µM", "result": 0.786}, {"measurement": "relative viability", "setting": "HCC-44; first compound 0.08 µM", "result": 0.555}, {"measurement": "relative viability", "setting": "HCC-44; first compound 0.253 µM", "result": 0.483}, {"measurement": "relative viability", "setting": "HCC-44; first compound 0.8 µM", "result": 0.485}, {"measurement": "relative viability", "setting": "HCC-44; first compound 2.53 µM", "result": 0.932}, {"measurement": "relative viability", "setting": "COR-L23; first compound 0.08 µM", "result": 0.805}, {"measurement": "relative viability", "setting": "COR-L23; first compound 0.253 µM", "result": 0.762}, {"measurement": "relative viability", "setting": "COR-L23; first compound 0.8 µM", "result": 0.885}, {"measurement": "relative viability", "setting": "COR-L23; first compound 2.53 µM", "result": 0.906}, {"measurement": "relative viability", "setting": "NCI-H2087; first compound 0.08 µM", "result": 0.48}, {"measurement": "relative viability", "setting": "NCI-H2087; first compound 0.253 µM", "result": 0.467}, {"measurement": "relative viability", "setting": "NCI-H2087; first compound 0.8 µM", "result": 0.507}, {"measurement": "relative viability", "setting": "NCI-H2087; first compound 2.53 µM", "result": 0.44}, {"measurement": "relative viability", "setting": "EPLC-272H; first compound 0.08 µM", "result": 0.342}, {"measurement": "relative viability", "setting": "EPLC-272H; first compound 0.253 µM", "result": 0.261}, {"measurement": "relative viability", "setting": "EPLC-272H; first compound 0.8 µM", "result": 0.304}, {"measurement": "relative viability", "setting": "EPLC-272H; first compound 2.53 µM", "result": 0.317}, {"measurement": "relative viability", "setting": "UMC-11; first compound 0.08 µM", "result": 0.594}, {"measurement": "relative viability", "setting": "UMC-11; first compound 0.253 µM", "result": 0.477}, {"measurement": "relative viability", "setting": "UMC-11; first compound 0.8 µM", "result": 0.591}, {"measurement": "relative viability", "setting": "ABC-1; first compound 0.08 µM", "result": 0.751}, {"measurement": "relative viability", "setting": "ABC-1; first compound 0.253 µM", "result": 0.411}, {"measurement": "relative viability", "setting": "ABC-1; first compound 0.8 µM", "result": 0.553}, {"measurement": "relative viability", "setting": "ABC-1; first compound 2.53 µM", "result": 0.649}, {"measurement": "relative viability", "setting": "LCLC-103H; first compound 0.08 µM", "result": 0.46}, {"measurement": "relative viability", "setting": "LCLC-103H; first compound 0.253 µM", "result": 0.413}, {"measurement": "relative viability", "setting": "LCLC-103H; first compound 0.8 µM", "result": 0.428}, {"measurement": "relative viability", "setting": "LCLC-103H; first compound 2.53 µM", "result": 0.473}, {"measurement": "relative viability", "setting": "NCI-H1792; first compound 0.08 µM", "result": 0.866}, {"measurement": "relative viability", "setting": "NCI-H1792; first compound 0.253 µM", "result": 0.715}, {"measurement": "relative viability", "setting": "NCI-H1792; first compound 0.8 µM", "result": 0.618}, {"measurement": "relative viability", "setting": "NCI-H1792; first compound 2.53 µM", "result": 0.666}, {"measurement": "relative viability", "setting": "HCC-827; first compound 0.08 µM", "result": 0.903}, {"measurement": "relative viability", "setting": "HCC-827; first compound 0.8 µM", "result": 0.814}, {"measurement": "relative viability", "setting": "HCC-827; first compound 2.53 µM", "result": 0.759}, {"measurement": "relative viability", "setting": "NCI-H520; first compound 0.08 µM", "result": 0.24}, {"measurement": "relative viability", "setting": "NCI-H520; first compound 0.253 µM", "result": 0.288}, {"measurement": "relative viability", "setting": "NCI-H520; first compound 0.8 µM", "result": 0.274}, {"measurement": "relative viability", "setting": "NCI-H520; first compound 2.53 µM", "result": 0.28}, {"measurement": "relative viability", "setting": "H3255; first compound 0.08 µM", "result": 0.745}, {"measurement": "relative viability", "setting": "H3255; first compound 0.253 µM", "result": 0.535}, {"measurement": "relative viability", "setting": "H3255; first compound 0.8 µM", "result": 0.616}, {"measurement": "relative viability", "setting": "H3255; first compound 2.53 µM", "result": 0.592}, {"measurement": "relative viability", "setting": "201T; first compound 0.08 µM", "result": 0.562}, {"measurement": "relative viability", "setting": "201T; first compound 0.8 µM", "result": 0.819}, {"measurement": "relative viability", "setting": "201T; first compound 2.53 µM", "result": 0.768}, {"measurement": "relative viability", "setting": "NCI-H661; first compound 0.08 µM", "result": 0.77}, {"measurement": "relative viability", "setting": "NCI-H661; first compound 0.253 µM", "result": 0.667}, {"measurement": "relative viability", "setting": "NCI-H661; first compound 0.8 µM", "result": 0.743}, {"measurement": "relative viability", "setting": "NCI-H661; first compound 2.53 µM", "result": 0.802}, {"measurement": "relative viability", "setting": "NCI-H1975; first compound 0.08 µM", "result": 0.839}, {"measurement": "relative viability", "setting": "NCI-H1975; first compound 0.253 µM", "result": 0.647}, {"measurement": "relative viability", "setting": "NCI-H1975; first compound 0.8 µM", "result": 0.6}, {"measurement": "relative viability", "setting": "NCI-H1975; first compound 2.53 µM", "result": 0.399}, {"measurement": "relative viability", "setting": "NCI-H1650; first compound 0.08 µM", "result": 0.75}, {"measurement": "relative viability", "setting": "NCI-H1650; first compound 0.253 µM", "result": 0.61}, {"measurement": "relative viability", "setting": "NCI-H1650; first compound 0.8 µM", "result": 0.554}, {"measurement": "relative viability", "setting": "NCI-H1650; first compound 2.53 µM", "result": 0.56}, {"measurement": "relative viability", "setting": "NCI-H358; first compound 0.08 µM", "result": 0.843}, {"measurement": "relative viability", "setting": "NCI-H358; first compound 0.253 µM", "result": 0.647}, {"measurement": "relative viability", "setting": "NCI-H358; first compound 0.8 µM", "result": 0.771}, {"measurement": "relative viability", "setting": "NCI-H358; first compound 2.53 µM", "result": 0.627}, {"measurement": "relative viability", "setting": "COR-L 105; first compound 0.08 µM", "result": 0.769}, {"measurement": "relative viability", "setting": "COR-L 105; first compound 0.253 µM", "result": 0.661}, {"measurement": "relative viability", "setting": "COR-L 105; first compound 0.8 µM", "result": 0.694}, {"measurement": "relative viability", "setting": "COR-L 105; first compound 2.53 µM", "result": 0.379}]}]}
